# Results as given in ChEMBL document CHEMBL4393667, “Discovery of [1,2,4]Triazolo[4,3- a]pyridines as Potent Inhibitors Targeting the Programmed Cell Death-1/Programmed Cell Death-Ligand 1 Interaction” (J Med Chem, 2019).
# Biological target: T1, Programmed cell death protein 1/Programmed cell death 1 ligand 1 (Homo sapiens, UniProt Q15116+Q9NZQ7)
# Test: Inhibition of human PD1/PDL1 protein-protein interaction after 15 mins by HTRF assay
# Format: protein-complex assay
# T1 sequence (Q15116 whole entry): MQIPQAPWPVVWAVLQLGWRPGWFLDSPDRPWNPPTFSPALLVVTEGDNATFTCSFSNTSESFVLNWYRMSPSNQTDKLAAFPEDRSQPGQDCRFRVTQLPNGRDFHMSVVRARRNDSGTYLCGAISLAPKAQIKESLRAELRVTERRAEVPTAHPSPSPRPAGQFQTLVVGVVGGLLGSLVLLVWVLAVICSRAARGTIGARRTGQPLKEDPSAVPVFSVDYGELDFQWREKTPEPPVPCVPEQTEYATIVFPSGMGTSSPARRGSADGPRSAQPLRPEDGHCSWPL
# T1 sequence (Q9NZQ7 whole entry): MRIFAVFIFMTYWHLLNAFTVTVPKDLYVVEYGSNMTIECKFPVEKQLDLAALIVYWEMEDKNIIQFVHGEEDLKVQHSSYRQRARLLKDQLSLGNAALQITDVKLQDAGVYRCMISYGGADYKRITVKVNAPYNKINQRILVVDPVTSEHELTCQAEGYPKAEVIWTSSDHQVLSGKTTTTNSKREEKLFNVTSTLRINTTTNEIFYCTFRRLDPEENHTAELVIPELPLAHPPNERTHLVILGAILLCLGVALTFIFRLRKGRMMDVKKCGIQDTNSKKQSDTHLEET
row,Structure (SMILES),IC50 [nM]
1,Cc1c(NC(=O)c2cc(CNCC(N)=O)cn3cnnc23)cccc1-c1ccccc1,2940
2,CC(=O)NCCNCc1cc(C(=O)Nc2cccc(-c3ccc4c(c3)OCCO4)c2C)c2nncn2c1,566
3,Cc1c(NC(=O)c2cc(CN3CCN(C)CC3)cn3cnnc23)cccc1-c1ccccc1,1350
4,COC(=O)[C@@H]1CCCCN1Cc1cc(C(=O)Nc2cccc(-c3ccccc3)c2C)c2nncn2c1,> 10000
5,CC(=O)NCCNCc1cc(C(=O)Nc2cccc(-c3ccc4c(c3)OCCO4)c2C#N)c2nncn2c1,367
6,Cc1c(NC(=O)c2cc(CN(C)CCO)cn3cnnc23)cccc1-c1ccc2c(c1)OCCO2,238
7,Cc1c(NC(=O)c2cc(CNCCO)cn3ccnc23)cccc1-c1ccccc1,> 10000
8,CC(=O)NCCNCc1ccc(C(=O)Nc2cccc(-c3ccccc3)c2C)c2nncn12,> 10000
9,Cc1c(NC(=O)c2cc(CN[C@H](CO)C(=O)O)cn3cnnc23)cccc1-c1ccccc1,5570
10,Cc1c(NC(=O)c2cc(CNCCO)cn3cnnc23)cccc1-c1ccccc1,733
11,Cc1c(NC(=O)c2cc(CN3CCCC[C@H]3C(=O)O)cn3cnnc23)cccc1-c1ccccc1,5130
12,Cc1c(NC(=O)c2cc(CNCCS(N)(=O)=O)cn3cnnc23)cccc1-c1ccc2c(c1)OCCO2,3690
13,CC(=O)NCCNCc1cc(C(=O)Nc2cccc(-c3ccccc3)c2C)c2nccn2c1,> 10000
14,Cc1c(NC(=O)c2cc(CNCCO)cn3c(C)nnc23)cccc1-c1ccccc1,> 10000
15,CC(=O)NCCNCc1cc(C(=O)Nc2cccc(-c3ccccc3)c2C)c2nncn2c1,1490
16,COC(=O)[C@@H](CO)NCc1cc(C(=O)Nc2cccc(-c3ccccc3)c2C)c2nncn2c1,> 10000
17,CN(Cc1cc(C(=O)Nc2cccc(-c3ccc4c(c3)OCCO4)c2C#N)c2nncn2c1)CC(O)CO (stereo unspecified),486
18,Cc1c(NC(=O)c2cc(CN3CCN(C)CC3)cn3c(C)nnc23)cccc1-c1ccccc1,> 10000
19,Cc1c(NC(=O)c2cc(CN(C)CC(O)CO)cn3cnnc23)cccc1-c1ccc2c(c1)OCCO2 (stereo unspecified),474
20,Cc1c(NC(=O)c2cc(CN[C@H]3CC[C@H](O)CC3)cn3cnnc23)cccc1-c1ccccc1,968
21,CS(=O)(=O)NCCNCc1cc(C(=O)Nc2cccc(-c3ccc4c(c3)OCCO4)c2C#N)c2nncn2c1,983
22,COC(=O)CNCc1cc(C(=O)Nc2cccc(-c3ccccc3)c2C)c2nncn2c1,> 10000
23,Cc1c(NC(=O)c2ccc(CNCCO)n3cnnc23)cccc1-c1ccccc1,> 10000
24,Cc1c(NC(=O)c2cc(CNCCNS(C)(=O)=O)cn3cnnc23)cccc1-c1ccc2c(c1)OCCO2,988
25,N#Cc1c(NC(=O)c2cc(CNCCO)cn3cnnc23)cccc1-c1ccc2c(c1)OCCO2,275
26,Cc1c(NC(=O)c2cc(CNCCS(N)(=O)=O)cn3cnnc23)cccc1-c1ccccc1,834
27,Cc1c(NC(=O)c2cc(CN(C)CC(O)CO)cn3cnnc23)cccc1-c1ccccc1 (stereo unspecified),375
28,Cc1c(NC(=O)c2ccc(CN(C)CCO)n3cnnc23)cccc1-c1ccccc1,> 10000
29,Cc1c(NC(=O)c2cc(CN(C)CCO)cn3ccnc23)cccc1-c1ccccc1,> 10000
30,Cc1c(NC(=O)c2cc(CN(C)CCO)cn3cnnc23)cccc1-c1ccccc1,755

# Biological target: T1, Programmed cell death protein 1/Programmed cell death 1 ligand 1
# Test: Inhibition of human PD1/PDL1 protein-protein interaction in human PBMC-derived CD3-positive T cells co-cultured with human Hep3B cells expressing PDL1/OS-8 assessed as increase in IFNgamma secretion measured after 3 days
row,Structure (SMILES),inhibition
1,Cc1c(NC(=O)c2cc(CNCCO)cn3cnnc23)cccc1-c1ccc2c(c1)OCCO2,Dose-dependent effect
